According to ChEMBL document CHEMBL1201862, “PubChem BioAssay data set” (2004):
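Test compounds were applied to cells in 96-well plates for 48 hours at 5 doses. Abbreviation: GI50, concentration required for 50% inhibition of growth.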 Active and inactive are the calls of the source. Rule as the data show it: active = GI50 up to about 1.1 µM and inactive = higher.

Legend:
Assay in all cases: NCI anticancer screen, dose series, 48 h
[1] = system: HOP-62
[2] = system: SF-539
[3] = system: HCT-116
[4] = system: T47D
[5] = system: MOLT-4
[6] = system: SF-295
[7] = system: MDA-MB-231
[8] = system: COLO 205
[9] = system: IGROV-1
[10] = system: NCI-H23
[11] = system: U-251
[12] = system: NCI-H226
[13] = system: TK-10
[14] = system: ACHN
[15] = system: OVCAR-4
[16] = system: UACC-62
[17] = system: NCI-H522
[18] = system: OVCAR-3
[19] = system: CCRF-CEM
[20] = system: SK-MEL-28
[21] = system: SNB-19
[22] = system: SK-MEL-5
[23] = system: SK-MEL-2
[24] = system: SNB-75
[25] = system: HL-60
[26] = system: Hs-578T
[27] = system: HT-29
[28] = system: OVCAR-8
[29] = system: RPMI-8226
[30] = system: CAKI-1
[31] = system: PC-3
[32] = system: MDA-MB-435
[33] = system: Malme-3M
[34] = system: HOP-92
[35] = system: UACC-257
[36] = system: HCT-15
[37] = system: M14
[38] = system: MCF7
[39] = system: MDA-N
[40] = system: EKVX
[41] = system: A549
[42] = system: KM12
[43] = system: BT-549
[44] = system: SW-620
[45] = system: K562
[46] = system: RXF 393
[47] = system: NCI-H460
[48] = system: HCC 2998
[49] = system: SK-OV-3
[50] = system: UO-31
[51] = system: LOX IMVI
[52] = system: SR
[53] = system: 786-0
[54] = system: OVCAR-5
[55] = system: A498
[56] = system: SF-268
[57] = system: SN12C
[58] = system: NCI/ADR-RES
[59] = system: DU-145

## CC(C)CNC(=O)c1c(NC(=O)c2ccccc2)sc2[nH]c(=O)n(-c3ccccc3)c(=O)c12
[1]
  GI50: 15.3 µM (inactive)
[2]
  GI50: 46 µM (inactive)
[3]
  GI50: > 86.3 µM (inactive)
[4]
  GI50: 89.3 µM (inactive)
[5]
  GI50: 51.3 µM (inactive)
[6]
  GI50: 19.6 µM (inactive)
[7]
  GI50: 23.2 µM (inactive)
[8]
  GI50: > 100 µM (inactive)
[9]
  GI50: 74.3 µM (inactive)
[10]
  GI50: 80.5 µM (inactive)
[11]
  GI50: 31.3 µM (inactive)
[12]
  GI50: > 82.6 µM (inactive)
[13]
  GI50: 37.9 µM (inactive)
[14]
  GI50: 13.8 µM (inactive)
[15]
  GI50: > 64 µM (inactive)
[16]
  GI50: 64.3 µM (inactive)
[17]
  GI50: 43.7 µM (inactive)
[18]
  GI50: > 100 µM (inactive)
[19]
  GI50: 40.5 µM (inactive)
[20]
  GI50: > 100 µM (inactive)
[21]
  GI50: 24 µM (inactive)
[22]
  GI50: > 93.1 µM (inactive)
[23]
  GI50: 27.5 µM (inactive)
[24]
  GI50: 17.8 µM (inactive)
[25]
  GI50: 68.9 µM (inactive)
[26]
  GI50: 14.3 µM (inactive)
[27]
  GI50: > 100 µM (inactive)
[28]
  GI50: > 100 µM (inactive)
[29]
  GI50: > 100 µM (inactive)
[30]
  GI50: > 42.1 µM (inactive)
[31]
  GI50: > 100 µM (inactive)
[32]
  GI50: > 100 µM (inactive)
[33]
  GI50: > 82.8 µM (inactive)
[34]
  GI50: 5.09 µM (inactive)
[35]
  GI50: > 100 µM (inactive)
[36]
  GI50: > 100 µM
[37]
  GI50: 91.2 µM (inactive)
[38]
  GI50: > 100 µM (inactive)
[39]
  GI50: > 100 µM (inactive)
[40]
  GI50: 70.6 µM (inactive)
[41]
  GI50: > 100 µM (inactive)
[42]
  GI50: > 100 µM (inactive)
[43]
  GI50: 26.4 µM (inactive)
[44]
  GI50: > 100 µM (inactive)
[45]
  GI50: 31 µM (inactive)
[46]
  GI50: 16.6 µM (inactive)
[47]
  GI50: > 100 µM (inactive)
[48]
  GI50: > 100 µM (inactive)
[49]
  GI50: 23.8 µM (inactive)
[50]
  GI50: > 71.4 µM (inactive)
[51]
  GI50: > 100 µM (inactive)
[52]
  GI50: 49.4 µM (inactive)
[53]
  GI50: 16.8 µM (inactive)
[54]
  GI50: > 100 µM (inactive)
[55]
  GI50: 27.5 µM (inactive)
[56]
  GI50: 37.1 µM (inactive)
[57]
  GI50: > 100 µM (inactive)
[58]
  GI50: > 97.5 µM (inactive)
[59]
  GI50: > 100 µM (inactive)

## CN(C)c1nc(N)c(C#N)c(C#N)c1C#N
[1]
  GI50: > 10 µM (inactive)
[2]
  GI50: > 10 µM (inactive)
[3]
  GI50: > 10 µM (inactive)
[4]
  GI50: > 8.32 µM (inactive)
[5]
  GI50: 3.28 µM (inactive)
[6]
  GI50: > 10 µM (inactive)
[7]
  GI50: > 10 µM (inactive)
[8]
  GI50: > 8.81 µM (inactive)
[9]
  GI50: > 6 µM (inactive)
[10]
  GI50: > 7.46 µM (inactive)
[11]
  GI50: > 10 µM (inactive)
[12]
  GI50: > 10 µM (inactive)
[13]
  GI50: > 10 µM (inactive)
[14]
  GI50: > 10 µM (inactive)
[15]
  GI50: > 10 µM (inactive)
[16]
  GI50: > 10 µM (inactive)
[17]
  GI50: 1.87 µM (inactive)
[18]
  GI50: > 10 µM (inactive)
[19]
  GI50: 3.08 µM (inactive)
[20]
  GI50: > 10 µM (inactive)
[21]
  GI50: > 10 µM (inactive)
[22]
  GI50: > 10 µM (inactive)
[23]
  GI50: > 10 µM (inactive)
[24]
  GI50: 9.68 µM (inactive)
[25]
  GI50: 2.21 µM (inactive)
[26]
  GI50: > 10 µM (inactive)
[27]
  GI50: > 10 µM (inactive)
[28]
  GI50: > 10 µM (inactive)
[29]
  GI50: > 8.79 µM (inactive)
[30]
  GI50: > 10 µM (inactive)
[31]
  GI50: > 10 µM (inactive)
[32]
  GI50: > 10 µM (inactive)
[33]
  GI50: > 10 µM (inactive)
[34]
  GI50: > 10 µM (inactive)
[35]
  GI50: > 10 µM (inactive)
[36]
  GI50: > 10 µM
[37]
  GI50: > 10 µM (inactive)
[38]
  GI50: > 10 µM (inactive)
[39]
  GI50: > 10 µM (inactive)
[40]
  GI50: > 10 µM (inactive)
[41]
  GI50: > 10 µM (inactive)
[42]
  GI50: > 10 µM (inactive)
[43]
  GI50: > 10 µM (inactive)
[44]
  GI50: 8.73 µM (inactive)
[45]
  GI50: > 4.61 µM (inactive)
[46]
  GI50: > 10 µM (inactive)
[47]
  GI50: > 10 µM (inactive)
[48]
  GI50: > 10 µM (inactive)
[49]
  GI50: > 10 µM (inactive)
[50]
  GI50: > 10 µM (inactive)
[51]
  GI50: > 10 µM (inactive)
[52]
  GI50: 3.42 µM (inactive)
[53]
  GI50: > 7.16 µM (inactive)
[54]
  GI50: > 10 µM (inactive)
[55]
  GI50: > 10 µM (inactive)
[56]
  GI50: > 10 µM (inactive)
[57]
  GI50: > 10 µM (inactive)
[58]
  GI50: > 10 µM (inactive)
[59]
  GI50: > 10 µM (inactive)
